Data taken from patent US20060153931A1, “Prevention of flap necrosis in plastic surgery” (priority 2001, published 2006).
Ends that are not written are not given here.

Tests used:
[1] = tested on: free tissue transfer of forearm tissues to the face; conditions: human, in vivo
[2] = tested on: coronary artery bypass grafts; assay: Patient with coronary artery bypass, vasospasm of the grafts (Example II); format: in vivo, human
pedicle flap = conditions: 30 minutes after lidocaine application, topical to pedicle; cited from earlier work
[3] = tested on: skin flaps based on the epigastric artery and vein; assay: Rat epigastric skin flap model, ET-1 induced pedicle vasoconstriction (Background Example 1); format: in vivo, rats
headache = format: in vivo; conditions: oral capsules each containing 100 mg aspirin and 200 mg of CX—NO
Experimental: CX—NO of Example 14 of U.S. Pat. No. 6,403,759 is formulated in a gel at 50 mM and is admixed with aspirin and the combination used to fill capsules each containing 100 mg aspirin and 200 mg of CX—NO. […] Alternatively, the CX—NO is used as or included in a coating for aspirin tablets (100 mg aspirin in a tablet), and administration orally of the coated aspirin provides the same result.

[4] = tested on: island skin flaps based upon the epigastic artery and vein; assay: Rat island skin flap model, ET-1 induced vasoconstriction, CX—NO (Background Example 2); format: in vivo, rats; conditions: 0.25 ml of 3.17 mM CX—NO in DMSO, 15 min after ET-1, FIG. 1
[5] = 30 min after application, 2% lidocaine or 10^−4M ENO, 15 min after ET-1, mean±SEM
[6] = addition of 100 μM ethyl nitrite after lidocaine (2%)
[7] = topical 10^−5 M ET-1 on pedicle

CC(N=O)(S(C)(=O)=O)S(C)(=O)=O [compound (1)]
vasodilation and blood flow after vasospasm [1]: same result

CCN(CC)CC(=O)Nc1c(C)cccc1C [lidocaine, reference compound]
blood flow in grafts ([2]; topical lidocaine (2%)): temporary but marginal blood flow | effect on vasoconstriction / blood flow, decreasing to % of baseline (pedicle flap): ≤ 50 % of baseline

CCON=O [ENO, ethyl nitrite]
overall effect on arterial dilation and blood flow (in words) ([3]; 2% lidocaine vs 10^−4M ENO): longer lasting and greater effect | time after application from which restoration of arterial diameter is greater compared to lidocaine (p<0.05) ([3]; 10^−4M ENO vs 2% lidocaine): 10 min | time after application from which restoration of blood flow is greater compared to lidocaine (p<0.05) ([3]; 10^−4M ENO vs 2% lidocaine): 13 min | arterial diameter ([3]; 1 min after application (lidocaine: within 1 min), 2% lidocaine or 10^−4M ENO, 15 min after ET-1, mean±SEM): 83±5 % of baseline | flap blood flow ([3]; 2 min after application, 2% lidocaine or 10^−4M ENO, 15 min after ET-1, laser Doppler, mean±SEM): 62±6 % of baseline | flap blood flow ([3]; 30 min after application, 2% lidocaine or 10^−4M ENO, 15 min after ET-1, laser Doppler, mean±SEM): 86±10 % of baseline | arterial diameter [3, 5]: 98±5 % of baseline | vein diameter [3, 5]: 75±5 % of baseline | vasodilation and blood flow after vasospasm [1]: vasodilation and flow is restored | EKG (ischemia) [2, 6]: normalized EKG | blood flow in grafts [2, 6]: restored flow

ET-1: Endothelin-1, applied topically to induce pedicle vasoconstriction (CSCSSLMDKECVYFCHLDIIW; ends and bridges not checked; cysteine pairing not given here; UniProt P05305 53-73, looked up) [reference compound]
vasoconstriction of the epigastric artery [3, 7]: 69-76% | vasoconstriction of the epigastric vein [3, 7]: 43-72% | reduction of flap blood flow to % of baseline ([3]; topical 10^−5 M ET-1 on pedicle, laser Doppler): 35-45 % of baseline

O— and S-nitrosylated β-cyclodextrin
headache relief (headache): relieved headache

nitrosylated polythiolated cyclodextrin [CX—NO]
arterial diameter as a percentage of baseline [4]: increase | vein diameter as a percentage of baseline [4]: increase | blood flow in small vessels as a percentage of baseline flow ([4]; laser Doppler): increase
